{"source": "patent US10889552B2", "about": "“Dihydroxybenzamide compound having HSP90 inhibitory activity or pharmaceutically acceptable salt thereof, and medical use thereof” (priority 2016, dated 2021)", "key": {"[1]": {"test_system": "H1975 cells", "assay": "Cell viability by MTS analysis in H1975 cells resistant to Gefitinib", "format": "cell-based", "conditions": "H1975, cultured for 3 days", "protocol": "To confirm the cell viability according to the concentration of the compound synthesized in H1975 cells (ATCC) resistant to Gefitinib, MTS [3-(4,5-dimethylthiazol-2-yl)-5-[…]carboxymethoxyphenyl)-2-(4-sulfophenyl)-2H-terazolium, inner salt] analysis was performed. When the cells were cultured so as to occupy 80% of the bottom of the culture dish, the cells were detached and diluted with RPMI 1640 medium to a concentration of 1.5×10^3 cells/well. Each 100 μL of the suspension was added to each well of a 96-well plate and cultured for 14 hours."}, "[2]": {"test_system": "H1975", "assay": "Cell proliferation / survival inhibition by MTS analysis (H1975)", "format": "cell-based", "conditions": "for Inhibition rate at 10 μM (%) / Inhibition rate at 30 μM (%): test system not given", "protocol": "Sk-Br3 (Korean cell line bank), a breast cancer cell, and H1975 cell (ATCC), a nonsmall cell lung cancer, were cultured in RPMI 1640 containing 25 mM HEPES (4-(2-hydroxyethyl)-1-piperazineethanesulfonic acid) and RPMI 1640 containing L-glutamine (containing streptomycin ([…]), penicillin (100 units/mL) and 10% fetal bovine serum (FBS)).\nNext, non-metastatic lung cancer cells were treated with Compound 17 and the cell proliferation rate or cell survival rate was measured by MTS [3-(4,5-dimethylthiazol-2-yl)-5-(3-carboxymethoxyphenyl)-1-2H-tetrazolium, inner salt] analysis.\nCells were dispensed in 96-well plates at 3000 cell/well (Sk-Br3) and 2000 cell/well (H1975), and 100 μL of the medium was added per well and then was incubated overnight.\nCell proliferation was evaluated using the Promega Cell Titer 96 Aqueous One Solution cell proliferation assay.\nAfter compound and cell culture, 20 μL of assay substrate solution was added to each well and incubated at 37° C. for an additional 1 hour.\nCell proliferation was confirmed by measuring the absorbance at 490 nm using a microplate reader (Tecan Infinite F200 Proplate reader)."}, "[3]": {"assay": "Log P", "format": "physicochemical", "conditions": "text: measured values of Log P", "protocol": "All experimental data were analyzed using Prism software (version 5.0, Graphpad Software, San Diego, Calif.). In addition, tPSA (Topological Polar Surface Area) calculated using Cherndraw software and the measured values of Log P are shown in Tables 1 and 2 below."}, "[4]": {"test_system": "H1975 cells", "assay": "H1975 colony formation inhibitory effect (clonogenic assay)", "format": "cell-based", "conditions": "at 0.05 µM), 3 weeks, FIG. 3", "protocol": "H1975 cells were treated with Compound 17 at a concentration of 0.05 or 0.5 μM for 3 weeks and then clogenic assay was performed.\nFirst, RPMI1640 medium (10% FBS, 0.48% agar) was added to a 6-well plate and hardened, and then, 10000 cells (H1975) were dispensed in a medium containing RPMI1640 medium (10% FBS, 0.33% agar) and solidified. After solidification, the cells were treated with compound at a concentration of 0.05 or 0.5 […] for 24 hours, followed by culturing for 3 weeks, and then colony formation was confirmed using a crystal violet staining solution."}, "[5]": {"test_system": "HSP90 client protein of EGFR, Her2, Met, Akt, c-Raf, Cpk4", "assay": "Protein expression analysis (western blot) after Compound 17 treatment", "format": "cell-based", "conditions": "0.05, 0.1, 0.5 or 1 μM, 24 hours, FIG. 4", "protocol": "Next, the cells were dispensed into 100 mm culture dishes (1×10^6/dish) and adhered to the bottom surface overnight. Compound 17 at a concentration of 0.05, 0.1, 0.5 or 1 μM was added to the cells, followed by further culture for 24 hours.\nIn addition, cells were treated with DMSO (1%) or geladinamycin (1 μM) as a control and cultured for 24 hours.\nThe cultured cells were harvested and lysed in ice-cold lysis buffer (23 mM Tris-HCl pH 7.6, 130 mM NaCl, 1% NP40, […], 0.1% SDS (sodium dodecylsulfate)), and 30 μg of the lysate was separated by SDS-PAGE (SDS-polyacrylamide gel electrophoresis) and transferred to a PVDF membrane (Bio-Rad).\nMembranes were blocked with TBST (Tween 20 containing iris-Buffered Saline) containing 5% skim milk and incubated with the respective primary antibodies [EGFR (Epidermal growth factor receptor), Her2 (human epidermal growth factor receptor type 2), Met, N-cadherin, E-cadherin, α-tubulin, acetyl-α-tubulin, protein kinase B (Akt), c-Raf, Cdk4 (Cyclin-dependent kinase 4), HSP90, HSP70, PARP (Poly […] Polymerase), caspase 3, cleaved caspase 3, truncated caspase 8, B-cell lymphoma 2 (Bcl-2). Bax or β-Actin, purchased from Cell Signaling Technology (USA)].\nAfter binding to a secondary antibody conjugated with horseradish peroxidase, the protein was visualized by ECL (electrochemiluminescence, GE healthcare, USA)."}, "[6]": {"test_system": "HSP90 client protein (Her2, EGFR, Met, c-Raf, Akt), HSP70", "assay": "Analysis of protein expression (western blot) in H1975 cells, Compound 21f", "format": "cell-based", "protocol": "Compound 21f having good efficacy was selected and HSP90 client protein proliferation effect in the same cell line was confirmed, in which the HSP90 client proteins were Her2 (human EGFR-related 2), EGFR (epidermal growth factor receptor), Met and c-Raf were used.\nH1975 cells resistant to Gefitinib were cultured in a medium supplemented with 10% fetal bovine serum (FBS) for 24 hours, and the cells were detached, harvested and diluted with a RPMI 1640 medium so as to be 5×10^5 cells/well. Each 5 mL of the suspension was added to […] culture dish and cultured for 24 hours. Then, the medium was changed to the culture solution treated with each compound of concentration (21f 0, 0.05, 0.1, 0.5 or 1 μM, GA: 1 μM), and cultured for 24 hours. After culture, the cells were harvested and centrifuged at 1300 rpm for 5 minutes at 4° C., and the supernatant was removed. The pellet was washed with phosphate buffered saline, centrifuged once again under the same conditions, and the supernatant was removed. Lysis buffer was added to the remaining pellet and lysed by vortexing at 5 minute intervals for 30 minutes. The supernatant was separated by centrifugation at 16000 rcf for 4 minutes at 4° C., and proteins were quantified using BCA ([…]) kit. SDS-PAGE (sodium dodecylsulfate-polyacrylamide gel electrophoresis) was performed using 10, 12% running gel and 4% stacking gel (10 mA per gel). The separated proteins were transferred to an immunoblot PVDF, membrane (polyvinylidene fluoride membrane) at 100 V for 75 minutes. The membranes were blocked with 5% skim milk solution for 2 hours and then added a primary antibody diluted in the ratio of 1:750-1,000 in 0.1% tween-20 solution and reacted at 4° C. for 12 hours. After washing three times with TBS-T (Tris-buffered saline and Tween 20 containing Tween 20) and detected with an image analyzer using ECL (enhanced chemiluminescence) solution."}}, "data": [{"molecule": "5-chloro-2,4-dihydroxy-n-methyl-n-(2-methylbenzyl)benzamide [Compound 16a]", "values": [{"measurement": "EC50", "setting": "[1]", "result": 49.3, "unit": "µM"}]}, {"molecule": "5-chloro-2,4-dihydroxy-n-methyl-n-(3-methylbenzyl)benzamide [Compound 14i]", "values": [{"measurement": "EC50", "setting": "[1]", "result": 47.5, "unit": "µM"}]}, {"molecule": "O=C(c1cc(Cl)c(O)cc1O)N1CCCCC1", "note": "[Compound 11b]", "values": [{"measurement": "Inhibition rate at 10 μM (%)", "setting": "[2]", "result": 7.6, "unit": "%"}, {"measurement": "Inhibition rate at 30 μM (%)", "setting": "[2]", "result": 26.3, "unit": "%"}, {"measurement": "LogP", "setting": "[3]", "result": 1.69}]}, {"molecule": "CC(=O)N1CCN(C(=O)c2cc(Cl)c(O)cc2O)CC1", "note": "[Compound 11f, 1-(4-(5-chloro-2,4-dihydroxybenzol)piperazin-1-yl)ethanone]", "values": [{"measurement": "Inhibition rate at 10 μM (%)", "setting": "[2]", "result": 0, "unit": "%"}, {"measurement": "Inhibition rate at 30 μM (%)", "setting": "[2]", "result": 10.5, "unit": "%"}, {"measurement": "LogP", "setting": "[3]", "result": 0.25}]}, {"molecule": "COc1ccc(CN(C)C(=O)c2cc(Cl)c(O)cc2O)cc1", "note": "[Compound 14c, 5-chloro-2,4-dihydroxy-n-(4-methoxybenzyl)-n-methylbenzamide]", "values": [{"measurement": "EC50", "setting": "[1]", "result": 16.7, "unit": "µM"}]}, {"molecule": "COc1ccc(CN(C)C(=O)c2cc(Cl)c(O)cc2O)cc1OC", "note": "[Compound 14d, 5-chloro-n-(3,4-dimethoxybenzyl)-2,4-dihydroxy-n-methylbenzamide]", "values": [{"measurement": "EC50", "setting": "[1]", "result": 33.4, "unit": "µM"}]}, {"molecule": "COc1cc(CN(C)C(=O)c2cc(Cl)c(O)cc2O)c(Cl)c(OC)c1OC", "note": "[Compound 14g, 5-chloro-n-(2-chloro-3,4,5-trimethoxybenzyl)-2,4-dihydroxy-n-methylbenzamide]", "values": [{"measurement": "EC50", "setting": "[1]", "result": 33.8, "unit": "µM"}]}, {"molecule": "Cc1ccc(CN(C)C(=O)c2cc(Cl)c(O)cc2O)cc1", "note": "[Compound 16b, 5-chloro-2,4-dihydroxy-n-methyl-n-(4-methylbenzyl)benzamide]", "values": [{"measurement": "EC50", "setting": "[1]", "result": 34.3, "unit": "µM"}]}, {"molecule": "CC(C)c1cc(C(=O)N2CCN(C)CC2c2ccccc2)c(O)cc1O", "note": "(centres unmarked) [Compound 17, (2,4-dihydroxy-5-isopropylphenyl)(4-methyl-2-phenylpiperazin-1-yl)methanone]", "values": [{"measurement": "proliferation rate of the cells", "setting": "[2]; 0-70 μM, 1, 2 and 3 days, FIG. 2A", "result": "inhibited in a concentration-dependent manner"}, {"measurement": "colony formation of H1975", "setting": "[4]", "result": "inhibited the colony formation"}, {"measurement": "HSP protein inhibition / degradation of HSP90 client protein", "setting": "[5]", "result": "inhibited HSP protein in concentration-dependent manner"}]}, {"molecule": "CCNC(=O)c1ccc(CN(C)C(=O)c2cc(Cl)c(O)cc2O)cc1", "note": "[Compound 21b, 5-chloro-n-(4-(ethylcarbamoyl)benzyl)-2,4-dihydroxy-n-methylbenzamide]", "values": [{"measurement": "EC50", "setting": "[1]", "result": 21.7, "unit": "µM"}]}, {"molecule": "CCCNC(=O)c1ccc(CN(C)C(=O)c2cc(Cl)c(O)cc2O)cc1", "note": "[Compound 21c, 5-chloro-2,4-dihydroxy-n-methyl-n-(4-(propylcarbamoyl)benzyl)benzamide]", "values": [{"measurement": "EC50", "setting": "[1]", "result": 20.8, "unit": "µM"}]}, {"molecule": "CCCNC(=O)c1ccc(CN(C)C(=O)c2cc(C(C)C)c(O)cc2O)cc1", "note": "[Compound 21f, 2,4-dihydroxy-5-isopropyl-n-methyl-n-(4-(propylcarbamoyl)benzyl) benzamide]", "values": [{"measurement": "proliferation (expression) of the HSP90 client protein", "setting": "[6]; 0, 0.05, 0.1, 0.5 or 1 μM, 24 hours, FIG. 5", "result": "inhibited in a concentration-dependent manner"}, {"measurement": "concentration at which Akt expression was significantly decreased", "setting": "[6]; H1975, 24 hours", "result": 0.5, "unit": "µM"}, {"measurement": "concentration at which EGFR expression was significantly decreased", "setting": "[6]; H1975, 24 hours", "result": 0.1, "unit": "µM"}, {"measurement": "concentration at which Her2 expression was significantly decreased", "setting": "[6]; H1975, 24 hours", "result": 0.5, "unit": "µM"}, {"measurement": "concentration at which Met expression was significantly decreased", "setting": "[6]; H1975, 24 hours", "result": 0.5, "unit": "µM"}, {"measurement": "concentration at which expression of HSP70 was increased", "setting": "[6]; H1975, 24 hours", "result": 0.5, "unit": "µM"}]}]}
